In patent publication US20030187048A1, “Method for inhibiting skin lesion formation using histamine as the active ingredient” (priority 1991, published 2003):
Values joined by “and” are separate entries in the source; they are usually repeats but may differ in a detail not shown here. Equal entries are not always repeated. Where two headings read alike, the source gives them in different places.

Experiments:
[1] = tested on: Photodermatitis (second degree sunburn); conditions: for Avg blister/hr: from count at 65 hours; for Discomfort on Lotion or Gel Application / General Discomfort: scored 1 (none) to 5 (worst)
Procedure: Treatment consisted of topical application of all lotion or gel concentrations to their respective, randomly assigned quadrants ever 30 minutes for the first 2 hours following the irradiation period, followed by lotion or gel or applications every hour for four hours, then lotion or gel applications three times a day until 65 hours elapsed post 2-z irradiation. Photographs were taken during the treatment period and upon the formation of identifiable blisters, the numbers of blisters in each quadrant were recorded at three times during-the treatment period with cessation of lotion or gel application and data collection at the 65 hours point as exfoliation (peeling) of the outer layers of the epidermis began at 70 hours.
Subjective evaluation involved an estimate of pain/discomfort following lotion or gel application in each quadrant as well as a comparative general discomfort level for each quadrant during the treatment period. Pain/discomfort was scored from 1 (none) to 5 (worst).

[2] = tested on: pressure sores (decubitus ulcers); conditions: for Percent Reduction in Area from original Size / Mean Percent Reduction/Week: per patient; for Mean Percent Reduction/Week: lesion area from original size
Description: Treatment included standardized decubitus ulcer care for all pressure sores as determined by the protocol for the study.
Prospective subjects were considered for the study if their pressure sores (decubitus ulcers) were free from infection and either a Stage I or a Stage II lesion.
Patients were randomly assigned to one of four active ingredient levels being evaluated. […] Assignment of subjects to the four gel concentrations was unknown to the investigator.
The topical application of all gel concentrations to their respective, randomly assigned patients occurred once daily following careful rinsing of the pressure sore with sterile normal saline. After application of the appropriate gel concentration, each pressure sore was covered with a bio-occlusive dressing to minimize wound contamination.
Clinical evaluation included weekly classification of the stage of the pressure sores, the size and depth of the sores, the color, signs of infection (if present), odor (if present), and patient cooperation with treatment.

herpes genitalis lesions = conditions: for Burning score / Local pain score: scale 0 to 5; for Reduction in Complete Healing Time: vs usual episode
Procedure: Treatment consisted of topical application three times a day for a period of five days. […] The percent reduction in complete healing time as compared to a usual episode was evaluated grouping the two patients who received active gel concentrations together and comparing to the two patients receiving placebo gel.
(§1) Each patient was contacted daily for 5 days for his or her estimate of the symptomatic relief of 6 common symptoms associated with genital herpes as well as the patient's interpretation of total healing of the episode. In an attempt to quantify responses, patients were asked to rate each symptom on a scale of 0 to 5 with 0 representing no evidence of the symptom and 5 representing the worst or most prominent evidence of the symptom ever for the patient. Subject compliance with the study regimen and the use of other medications was also assessed.

[3] = tested on: herpes zoster (shingles) lesions; conditions: for Burning score / Local pain score: […] IEP gel, scale 0 to 5
Procedure: The percent reduction in complete healing time as compared to a usual episode was evaluated comparing the two patients who received active gel concentrations to the two patients receiving placebo gel. […] Subjects were assigned randomly to one of two active ingredient levels being evaluated, 0.0% and 0.015% by weight of active ingredient.
as §1, with “weekly” for “daily for 5 days”, “2” for “6”, “with” for “with genital”, “herpes zoster (shingles)” for “herpes”

[4] = 0.0045% IEP, lower right quadrant
[5] = 0.0067% IEP, upper left quadrant

## NCCc1c[nH]cn1 [IEP, 1H-imidazole-4-ethanamine,phosphate]
[1]; [4]
  Total # of blisters at 42 hrs: 7
  Total # of blisters at 52 hrs: 7
  Total # of blisters at 65 hrs: 14
  Avg blister/hr: 0.215 blister/hr
[1]; 0.0045% lotion or gel
  Discomfort on Lotion or Gel Application: 2
  General Discomfort: 1
[1]; [5]
  Total # of blisters at 52 hrs: 2
  Total # of blisters at 65 hrs: 10
  Avg blister/hr: 0.154 blister/hr
[1]; 0.0067% IEP, upper left quadrant, hours post irradiation
  Total # of blisters at 42 hrs: 2
[1]; 0.0067% lotion or gel
  Discomfort on Lotion or Gel Application: 1
  General Discomfort: 1
[1]; active lotion or gel (0.0045% and 0.0067% combined), p<0.05
  Treatment effect vs placebo, total rate of blister formation: statistically significant treatment effect
[1]; in vivo
  Untoward effects: no untoward effects
[2]; 0.0045% IEP gel, end of treatment week 1
  Percent Reduction in Area from original Size: 28.5% and 29.8%
[2]; 0.0045% IEP gel, end of week 2
  Percent Reduction in Area from original Size: 33.6% and 66.6%
[2]; 0.0045% IEP gel, end of week 3
  Percent Reduction in Area from original Size: 51.6% and 72.8%
[2]; 0.0045% IEP gel, end of week 4
  Percent Reduction in Area from original Size: 71.7% and 84.9%
[2]; 0.0045% IEP gel, end of week 5
  Percent Reduction in Area from original Size: 78.8% and 90.1%
[2]; 0.0045% IEP gel, end of week 6
  Percent Reduction in Area from original Size: 87.0% and 95.6%
[2]; 0.0045% IEP gel, end of week 7
  Percent Reduction in Area from original Size: 91.4% and 97.5%
[2]; 0.0045% IEP gel, end of week 8
  Percent Reduction in Area from original Size: 92.3% and 99.4%
[2]; 0.0045% IEP gel, end of week 9
  Percent Reduction in Area from original Size: 92.3% and 99.4%
[2]; 0.0045% IEP gel, end of week 10
  Percent Reduction in Area from original Size: 99.4%
[2]; 0.0045% gel
  Mean Percent Reduction/Week: 10.3% and 12.1%
[2]; 0.0069% IEP gel, end of week 1
  Percent Reduction in Area from original Size: 48.6% and 55.6%
[2]; 0.0069% IEP gel, end of week 2
  Percent Reduction in Area from original Size: 77.1% and 60.0%
[2]; 0.0069% IEP gel, end of week 3
  Percent Reduction in Area from original Size: 77.1% and 78.2%
[2]; 0.0069% IEP gel, end of week 4
  Percent Reduction in Area from original Size: 100% and 81.3%
[2]; 0.0069% IEP gel, end of week 5
  Percent Reduction in Area from original Size: 84.4%
[2]; 0.0069% IEP gel, end of week 6
  Percent Reduction in Area from original Size: 88.9%
[2]; 0.0069% IEP gel, end of week 7
  Percent Reduction in Area from original Size: 100%
[2]; 0.0069% gel
  Mean Percent Reduction/Week: 14.3% and 25.0%
[2]; 0.009% IEP gel, end of week 1
  Percent Reduction in Area from original Size: 66.7% and 56.5%
[2]; 0.009% IEP gel, end of week 2
  Percent Reduction in Area from original Size: 100.0% and 56.5%
[2]; 0.009% IEP gel, end of week 3
  Percent Reduction in Area from original Size: 100.0%
[2]; 0.009% gel
  Mean Percent Reduction/Week: 50.0% and 40.0%
[2]; 0.009% vs 0%, mean percent reduction in area per week, p<0.05
  Reducing the size of pressure sores vs placebo gel: statistically significantly more effective
[2]; in vivo
  Untoward effects: no untoward effects
Herpes genitalis lesions; 0.0275% IEP gel, day 1
  Burning score: 3
Herpes genitalis lesions; 0.0275% IEP gel, day 1 of treatment
  Local pain score: 3
Herpes genitalis lesions; 0.0275% IEP gel, day 2
  Burning score: 0
  Local pain score: 0
Herpes genitalis lesions; 0.0275% IEP gel, day 3
  Burning score: 0
  Local pain score: 0
Herpes genitalis lesions; 0.0275% IEP gel, day 4
  Burning score: 0
  Local pain score: 0
Herpes genitalis lesions; 0.0275% IEP gel, day 5
  Burning score: 0
  Local pain score: 0
Herpes genitalis lesions; 0.0275% IEP gel, patient 603, usual healing time 7 days
  Healing Time: 1 days
Herpes genitalis lesions; 0.0275% IEP gel
  Reduction in Complete Healing Time: 85%
Herpes genitalis lesions; […] IEP gel, day 1
  Burning score: 3
  Local pain score: 4
Herpes genitalis lesions; […] IEP gel, day 2
  Burning score: 1
  Local pain score: 2
Herpes genitalis lesions; […] IEP gel, day 3
  Burning score: 0
  Local pain score: 2
Herpes genitalis lesions; […] IEP gel, day 4
  Burning score: 0
  Local pain score: 0
Herpes genitalis lesions; […] IEP gel, day 5
  Burning score: 0
  Local pain score: 0
Herpes genitalis lesions; […] IEP gel, patient 604, usual healing time 7 days
  Healing Time: 3.5 days
Herpes genitalis lesions; […] IEP gel
  Reduction in Complete Healing Time: 50%
Herpes genitalis lesions; combined […] and 0.0275% groups, p<0.05
  Difference in percent reduction in complete healing time vs placebo: significant
Herpes genitalis lesions; topical gel […], 0.0275%, three times a day for five days
  Untoward reactions: no untoward reactions
[3]; week 2
  Burning score: 3
  Local pain score: 2
[3]; week 3
  Burning score: 0
  Local pain score: 0
[3]; week 4
  Burning score: 0
  Local pain score: 0
[3]; week 5
  Burning score: 0
  Local pain score: 0
[3]; […] gel, p<0.05
  Difference in percent reduction in complete healing time vs placebo: significant
[3]; topical gel […], three times a day
  Untoward reactions: no untoward reactions
